Reference: PubChem BioAssay AID1259407 (Chemical Carcinogenesis Research Information System (CCRIS), 2018)
Activity calls are given as the source filed them. The rule behind the calls is not given here.

Tested on: CCRIS mutagenicity, Ames/micronucleus/aberration tests
Test: CCRIS mutagenicity studies
[1] = Test System: AMES SALMONELLA TYPHIMURIUM, Strain/Indicator: TA98, Metabolic Activation: NONE, Method: PREINCUBATION
[2] = Test System: AMES SALMONELLA TYPHIMURIUM, Strain/Indicator: TA100, Metabolic Activation: NONE, Method: PREINCUBATION
[3] = Test System: AMES SALMONELLA TYPHIMURIUM, Strain/Indicator: TA100, Metabolic Activation: NONE, Method: STANDARD PLATE

CCCCCCCCCCCCCCCC(=O)O
mutagenic call [1]: inactive; negative
mutagenic call (Test System: AMES SALMONELLA TYPHIMURIUM, Strain/Indicator: TA98, Metabolic Activation: RAT LIVER S-9, PHENOBARBITAL AND BETA-NAPHTHOFLAVONE, Method: PREINCUBATION): inactive; negative
mutagenic call [2]: inactive; negative
mutagenic call (Test System: AMES SALMONELLA TYPHIMURIUM, Strain/Indicator: TA100, Metabolic Activation: RAT LIVER S-9, PHENOBARBITAL AND BETA-NAPHTHOFLAVONE, Method: PREINCUBATION): inactive; negative
mutagenic call (Test System: AMES SALMONELLA TYPHIMURIUM, Strain/Indicator: TA1535, Metabolic Activation: NONE, Method: PREINCUBATION): inactive; negative
mutagenic call (Test System: AMES SALMONELLA TYPHIMURIUM, Strain/Indicator: TA1535, Metabolic Activation: RAT LIVER S-9, PHENOBARBITAL AND BETA-NAPHTHOFLAVONE, Method: PREINCUBATION): inactive; negative
mutagenic call (Test System: AMES SALMONELLA TYPHIMURIUM, Strain/Indicator: TA1537, Metabolic Activation: NONE, Method: PREINCUBATION): inactive; negative
mutagenic call (Test System: AMES SALMONELLA TYPHIMURIUM, Strain/Indicator: TA1537, Metabolic Activation: RAT LIVER S-9, PHENOBARBITAL AND BETA-NAPHTHOFLAVONE, Method: PREINCUBATION): inactive; negative
mutagenic call (Test System: E.COLI, Strain/Indicator: WP2UVRA/PKM101, Metabolic Activation: NONE, Method: PREINCUBATION): inactive; negative
mutagenic call (Test System: E.COLI, Strain/Indicator: WP2UVRA/PKM101, Metabolic Activation: RAT LIVER S-9, PHENOBARBITAL AND BETA-NAPHTHOFLAVONE, Method: PREINCUBATION): inactive; negative

ClCc1c2ccccc2c(Cl)c2ccccc12
mutagenic call [3]: active; positive

Cc1cc2c(c3ccc4ccccc4c13)[C@H]1O[C@H]1[C@@H](O)[C@@H]2O
mutagenic call [2]: inactive; negative

C/C=C/c1ccc(O)c(OC)c1
mutagenic call (End Point: E. coli, Test System: WP2uvrA/pKM101, Metabolic Activation: None, Method: Preincubation): inactive; negative
mutagenic call (End Point: E. coli, Test System: WP2uvrA/pKM101, Metabolic Activation: Rat, Liver, S-9, Aroclor 1254 (10%), Method: Preincubation): inactive; negative
mutagenic call (End Point: In vitro chromosomal aberrations, Test System: Chinese hamster ovary (CHO) cells, Metabolic Activation: None): inactive; negative
mutagenic call (End Point: In vitro chromosomal aberrations, Test System: Chinese hamster ovary (CHO) cells, Metabolic Activation: Rat, Liver, S-9, Aroclor 1254): inactive; negative
mutagenic call (End Point: In vivo micronucleus, Test System: Micronucleated normochromatic erythrocytes in perripheral blood, Species: Mouse, Strain/Sex: B6C3F1 / Female, Route: Oral): active; positive
mutagenic call (End Point: In vivo micronucleus, Test System: Micronucleated normochromatic erythrocytes in perripheral blood, Species: Mouse, Strain/Sex: B6C3F1 / Male, Route: Oral): inactive; negative
mutagenic call (Test System: AMES SALMONELLA TYPHIMURIUM, Strain/Indicator: TA97, Metabolic Activation: NONE, Method: PREINCUBATION): inactive; negative
mutagenic call (Test System: AMES SALMONELLA TYPHIMURIUM, Strain/Indicator: TA97, Metabolic Activation: RAT, LIVER, S-9, AROCLOR 1254, Method: PREINCUBATION): inactive; negative
mutagenic call (Test System: AMES SALMONELLA TYPHIMURIUM, Strain/Indicator: TA98, Metabolic Activation: HAMSTER, LIVER, S-9, AROCLOR 1254, Method: STANDARD PLATE): inactive; negative
mutagenic call (Test System: AMES SALMONELLA TYPHIMURIUM, Strain/Indicator: TA98, Metabolic Activation: NONE, Method: STANDARD PLATE): inactive; negative
mutagenic call (Test System: AMES SALMONELLA TYPHIMURIUM, Strain/Indicator: TA98, Metabolic Activation: RAT, LIVER, S-9, AROCLOR 1254, Method: STANDARD PLATE): inactive; negative
mutagenic call (Test System: AMES SALMONELLA TYPHIMURIUM, Strain/Indicator: TA100, Metabolic Activation: HAMSTER, LIVER, S-9, AROCLOR 1254, Method: STANDARD PLATE): inactive; negative
mutagenic call [3]: inactive; negative
mutagenic call (Test System: AMES SALMONELLA TYPHIMURIUM, Strain/Indicator: TA100, Metabolic Activation: RAT, LIVER, S-9, AROCLOR 1254, Method: STANDARD PLATE): inactive; negative
mutagenic call (Test System: AMES SALMONELLA TYPHIMURIUM, Strain/Indicator: TA102, Metabolic Activation: NONE, Method: PREINCUBATION): inactive; negative
mutagenic call (Test System: AMES SALMONELLA TYPHIMURIUM, Strain/Indicator: TA102, Metabolic Activation: RAT, LIVER, S-9, AROCLOR 1254, Method: PREINCUBATION): inactive; negative
mutagenic call (Test System: AMES SALMONELLA TYPHIMURIUM, Strain/Indicator: TA1535, Metabolic Activation: HAMSTER, LIVER, S-9, AROCLOR 1254, Method: STANDARD PLATE): inactive; negative
mutagenic call (Test System: AMES SALMONELLA TYPHIMURIUM, Strain/Indicator: TA1535, Metabolic Activation: NONE, Method: STANDARD PLATE): inactive; negative
mutagenic call (Test System: AMES SALMONELLA TYPHIMURIUM, Strain/Indicator: TA1535, Metabolic Activation: RAT, LIVER, S-9, AROCLOR 1254, Method: STANDARD PLATE): inactive; negative
mutagenic call (Test System: AMES SALMONELLA TYPHIMURIUM, Strain/Indicator: TA1537, Metabolic Activation: HAMSTER, LIVER, S-9, AROCLOR 1254, Method: STANDARD PLATE): inactive; negative
mutagenic call (Test System: AMES SALMONELLA TYPHIMURIUM, Strain/Indicator: TA1537, Metabolic Activation: NONE, Method: STANDARD PLATE): inactive; negative
mutagenic call (Test System: AMES SALMONELLA TYPHIMURIUM, Strain/Indicator: TA1537, Metabolic Activation: RAT, LIVER, S-9, AROCLOR 1254, Method: STANDARD PLATE): inactive; negative
mutagenic call (Test System: AMES SALMONELLA TYPHIMURIUM, Strain/Indicator: TA1538, Metabolic Activation: HAMSTER, LIVER, S-9, AROCLOR 1254, Method: STANDARD PLATE): inactive; negative
mutagenic call (Test System: AMES SALMONELLA TYPHIMURIUM, Strain/Indicator: TA1538, Metabolic Activation: NONE, Method: STANDARD PLATE): inactive; negative
mutagenic call (Test System: AMES SALMONELLA TYPHIMURIUM, Strain/Indicator: TA1538, Metabolic Activation: RAT, LIVER, S-9, AROCLOR 1254, Method: STANDARD PLATE): inactive; negative
mutagenic call (Test System: MOUSE LYMPHOMA, Strain/Indicator: L5178Y (TK+/TK-), Metabolic Activation: NONE, Method: SUSPENSION/PLATE): active; positive. reevaluation of results: positive
mutagenic call (Test System: MOUSE LYMPHOMA, Strain/Indicator: L5178Y (TK+/TK-), Metabolic Activation: RAT, LIVER, S-9, AROCLOR 1254, Method: SUSPENSION/PLATE): inactive; negative. reevaluation of results: negative

COc1cccc2c1[C@H](CO)N1[C@@H](C#N)[C@@H]3C[C@@H](C(=O)O)[C@H]([C@@H]1C2)N3C
mutagenic call (Test System: Mouse lymphoma, Strain/Indicator: L5178Y (tk+/tk-), Metabolic Activation: None, Method: Suspension/plate): active; positive
mutagenic call (Test System: Mouse lymphoma, Strain/Indicator: L5178Y (tk+/tk-), Metabolic Activation: Rat, Liver, S-9, Aroclor 1254, Method: Suspension/plate): active; positive

O=[N+]([O-])c1cc(CCl)cc([N+](=O)[O-])c1
mutagenic call [1]: active; positive
mutagenic call (Test System: AMES SALMONELLA TYPHIMURIUM, Strain/Indicator: TA98, Metabolic Activation: RAT, LIVER, S-9, KANECHLOR 500, Method: PREINCUBATION): active; positive
mutagenic call [2]: active; positive
mutagenic call (Test System: AMES SALMONELLA TYPHIMURIUM, Strain/Indicator: TA100, Metabolic Activation: RAT, LIVER, S-9, KANECHLOR 500, Method: PREINCUBATION): active; positive

[Be+2]
mutagenic call [1]: inactive; negative
mutagenic call (Test System: AMES SALMONELLA TYPHIMURIUM, Strain/Indicator: TA98, Metabolic Activation: RAT, LIVER, S-9, (10%), Method: PREINCUBATION): inactive; negative
mutagenic call [2]: inactive; negative
mutagenic call (Test System: AMES SALMONELLA TYPHIMURIUM, Strain/Indicator: TA100, Metabolic Activation: RAT,LIVER, S-9 (10%), Method: PREINCUBATION): inactive; negative
